According to article PMC11676667, “Pharmacokinetics of Oral Cannabinoid Δ8-Tetrahydrocannabivarin and Its Main Metabolites in Healthy Participants” (Pharmaceuticals, 2024):
Where two headings read alike, the source gives them in different places.

Assay: Plasma pharmacokinetics after single oral dose of Δ8-THCV in MCT oil (LC-MS/MS, non-compartmental analysis)
Assay type: in vivo, human
Conditions: for concentration at 0.5 h / concentration at 1 h / concentration at 2 h / concentration at 4 h / concentration at 6 h / concentration at 8 h / AUC(0-t) / Cmax / MRT / Tmax: human; for concentration at 0.5 h / concentration at 1 h / concentration at 2 h / concentration at 4 h / concentration at 6 h / concentration at 8 h: oral; for AUC(0-t) / Cmax / MRT / Tmax: po; for MRT: read-out: MRT (mean residence time)
Method: The study was a two-phase, dose-ranging, placebo-controlled trial in 21 healthy participants to assess the safety, tolerability, PK, and PD of an oral formulation of Δ8-THCV. A detailed description of the study was published elsewhere. The study product was a medium-chain triglyceride (MCT) oil oral formulation of Δ8-THCV at a concentration of 50 mg/mL. […] MCT oil was used as placebo.
Twenty-one participants were enrolled in the clinical study and plasma samples from 15 participants were sent to our laboratory for pharmacokinetic evaluation. Of these, 3 participants were enrolled in Phase 1, an unblinded, placebo-controlled, single ascending dose design and 12 were enrolled in Phase 2, a double-blind, randomized, placebo-controlled, within-participant crossover design. At each study session, participants received one of the following oral doses: placebo, 12.5 mg, 25 mg, 50 mg, 100 mg, and 200 mg of the aforementioned Δ8-THCV formulation in MCT. Study visits were separated by a washout period of a minimum of one week and maximum of 28 days. Participants entered the research facility the night before the session and received the study product in the morning after a standardized high-fat, high-calorie breakfast. PK blood samples included in this analysis were collected prior to dosing and 0.5, 1, 2, 4, 6, and 8 h after dose. Immediately following collection into K2EDTA tubes, blood samples were placed on wet ice, centrifuged, and plasma was immediately frozen at −80 °C until shipment to the bioanalytical laboratory (iC42 Clinical Research and Development, University of Colorado, Aurora, CO, USA) on dry ice.
Plasma samples were analyzed using a validated high-performance liquid chromatography–tandem mass spectrometry (LC-MS/MS) assay. The assay included Δ8-THCV and its main metabolites 11-OH-Δ8-THCV and Δ8-THCV-COOH, Δ9-THCV and its main metabolite Δ9-THCV-COOH, and Δ9-THC and Δ8-THC as well as their main metabolites (Figure 3). The complete list of analyzed compounds and a summary of the key performance parameters of the assay are presented in Appendix A and Table A1 and Table A2. […] For the PK analysis, concentrations below the lower limit of quantification were set to 0 ng/mL. PK parameters were calculated using non-compartmental analysis (Phoenix WinNonlin version 8.4., Certara, Princeton, NJ, USA). Statistical analysis was carried out using GraphPad Prism (version 10, Boston, MA, USA).

[1] = plasma, 100 mg, 100 mg Δ8-THCV dose, Median (IQ Range)
[2] = plasma, 100 mg, 100 mg Δ8-THCV dose, Mean (SD, %CV)
[3] = plasma, 200 mg, 200 mg Δ8-THCV dose, Mean (SD, %CV)
[4] = plasma, 200 mg, 200 mg Δ8-THCV dose, Median (IQ Range)
[5] = plasma, 12.5 mg, 12.5 mg single oral Δ8-THCV in MCT oil, Mean (±SD)
[6] = plasma, 12.5 mg, 12.5 mg single oral Δ8-THCV in MCT oil, Median (Range)
[7] = plasma, 25 mg, 25 mg single oral Δ8-THCV in MCT oil, Mean (±SD)
[8] = plasma, 25 mg, 25 mg single oral Δ8-THCV in MCT oil, Median (Range)
[9] = plasma, 50 mg, 50 mg single oral Δ8-THCV in MCT oil, Mean (±SD)
[10] = plasma, 50 mg, 50 mg single oral Δ8-THCV in MCT oil, Median (Range)
[11] = plasma, 100 mg, 100 mg single oral Δ8-THCV in MCT oil, Mean (±SD)
[12] = plasma, 100 mg, 100 mg single oral Δ8-THCV in MCT oil, Median (Range)
[13] = plasma, 200 mg, 200 mg single oral Δ8-THCV in MCT oil, Mean (±SD)
[14] = plasma, 200 mg, 200 mg single oral Δ8-THCV in MCT oil, Median (Range)

Compound: CCCc1cc(O)c2c(c1)OC(C)(C)[C@@H]1CC=C(C(=O)O)C[C@@H]21 [Δ8-THCV-COOH, 11-nor-9-carboxy-Δ8-THCV]
- concentration at 0.5 h [1]: 1.7 ng/mL
- concentration at 1 h [2]: 202 ng/mL
- concentration at 1 h [1]: 79.5 ng/mL
- concentration at 2 h [2]: 306 ng/mL
- concentration at 2 h [1]: 275 ng/mL
- concentration at 4 h [2]: 556 ng/mL
- concentration at 4 h [1]: 547 ng/mL
- concentration at 6 h [2]: 512 ng/mL
- concentration at 6 h [1]: 497 ng/mL
- concentration at 8 h [2]: 319 ng/mL
- concentration at 8 h [1]: 304 ng/mL
- concentration at 0.5 h [3]: 5.6 ng/mL
- concentration at 0.5 h [4]: 0 ng/mL
- concentration at 1 h [3]: 158 ng/mL
- concentration at 1 h [4]: 108 ng/mL
- concentration at 2 h [3]: 653 ng/mL
- concentration at 2 h [4]: 319 ng/mL
- concentration at 4 h [3]: 1300 ng/mL
- concentration at 4 h [4]: 1110 ng/mL
- concentration at 6 h [3]: 1170 ng/mL
- concentration at 6 h [4]: 1020 ng/mL
- concentration at 8 h [3]: 917 ng/mL
- concentration at 8 h [4]: 855 ng/mL
- AUC(0-t) [5]: 398 ng·h/mL
- Cmax [5]: 99 ng/mL
- AUC(0-t) [6]: 331 ng·h/mL
- Cmax [6]: 101 ng/mL
- MRT (plasma, 12.5 mg, 12.5 mg single oral Δ8-THCV in MCT oil, plasma, Mean (±SD)): 4.9 h
- Tmax (plasma, 12.5 mg, 12.5 mg single oral Δ8-THCV in MCT oil, plasma, Mean (±SD), read-out: tmax): 4.9 h
- MRT (plasma, 12.5 mg, 12.5 mg single oral Δ8-THCV in MCT oil, plasma, Median (Range)): 4.9 h
- Tmax (plasma, 12.5 mg, 12.5 mg single oral Δ8-THCV in MCT oil, plasma, Median (Range), read-out: tmax): 4 h
- AUC(0-t) [7]: 642 ng·h/mL
- Cmax [7]: 151 ng/mL
- AUC(0-t) [8]: 574 ng·h/mL
- Cmax [8]: 116 ng/mL
- MRT (plasma, 25 mg, 25 mg single oral Δ8-THCV in MCT oil, plasma, Mean (±SD)): 4.8 h
- Tmax (plasma, 25 mg, 25 mg single oral Δ8-THCV in MCT oil, plasma, Mean (±SD), read-out: tmax): 4.6 h
- MRT (plasma, 25 mg, 25 mg single oral Δ8-THCV in MCT oil, plasma, Median (Range)): 4.6 h
- Tmax (plasma, 25 mg, 25 mg single oral Δ8-THCV in MCT oil, plasma, Median (Range), read-out: tmax): 4 h
- AUC(0-t) [9]: 1210 ng·h/mL
- Cmax [9]: 324 ng/mL
- AUC(0-t) [10]: 1090 ng·h/mL
- Cmax [10]: 275 ng/mL
- MRT (plasma, 50 mg, 50 mg single oral Δ8-THCV in MCT oil, plasma, Mean (±SD)): 5.3 h
- Tmax (plasma, 50 mg, 50 mg single oral Δ8-THCV in MCT oil, plasma, Mean (±SD), read-out: tmax): 5.3 h
- MRT (plasma, 50 mg, 50 mg single oral Δ8-THCV in MCT oil, plasma, Median (Range)): 5.3 h
- Tmax (plasma, 50 mg, 50 mg single oral Δ8-THCV in MCT oil, plasma, Median (Range), read-out: tmax): 6 h
- AUC(0-t) [11]: 3070 ng·h/mL
- Cmax [11]: 756 ng/mL
- AUC(0-t) [12]: 3130 ng·h/mL
- Cmax [12]: 699 ng/mL
- MRT (plasma, 100 mg, 100 mg single oral Δ8-THCV in MCT oil, plasma, Mean (±SD)): 4.8 h
- Tmax (plasma, 100 mg, 100 mg single oral Δ8-THCV in MCT oil, plasma, Mean (±SD), read-out: tmax): 4.7 h
- MRT (plasma, 100 mg, 100 mg single oral Δ8-THCV in MCT oil, plasma, Median (Range)): 4.6 h
- Tmax (plasma, 100 mg, 100 mg single oral Δ8-THCV in MCT oil, plasma, Median (Range), read-out: tmax): 4 h
- AUC(0-t) [13]: 6960 ng·h/mL
- Cmax [13]: 1740 ng/mL
- AUC(0-t) [14]: 6000 ng·h/mL
- Cmax [14]: 1900 ng/mL
- MRT (plasma, 200 mg, 200 mg single oral Δ8-THCV in MCT oil, plasma, Mean (±SD)): 5.1 h
- Tmax (plasma, 200 mg, 200 mg single oral Δ8-THCV in MCT oil, plasma, Mean (±SD), read-out: tmax): 5.3 h
- MRT (plasma, 200 mg, 200 mg single oral Δ8-THCV in MCT oil, plasma, Median (Range)): 5.1 h
- Tmax (plasma, 200 mg, 200 mg single oral Δ8-THCV in MCT oil, plasma, Median (Range), read-out: tmax): 6 h
- Tmax (plasma, across oral Δ8-THCV doses 12.5-200 mg, plasma, read-out: median time-to-maximum concentration (tmax), range across doses): 4.6 to 5.3 h
- number of positive plasma samples (of 504 plasma samples from 15 participants after oral Δ8-THCV): 381
- concentration in representative plasma sample (one subject after oral Δ8-THCV in MCT oil, Figure A1): 1026 ng/mL
- median systemic exposure (plasma AUClast) relative to parent compound (oral Δ8-THCV): 36 fold
- plasma concentration relative to Δ8-THCV, on average at each timepoint (oral Δ8-THCV): 10 fold
- increase of median AUClast every two-fold increase in the dose (oral Δ8-THCV 12.5-200 mg, plasma): 1.7- to 2.9 fold
